Reference: PubChem BioAssay AID2060491 (Molecular Pharmacology Branch, DTP, NCI, 2025)
pIC50: −log10 of the molar value.

Tested on: 857933-349-R-J2-PDC complex spheroids, viability
Experiment: Anticancer human tumor 857933-349-R-J2-PDC patient-derived colon adenocarcinoma cell line growth inhibition [GQUAD]
Settings: for pIC50: curve of first compound; for viability, T/C: stronger effect = lower value
Method in brief: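 Multi-cell-type spheroids of tumor cells with HUVEC and mesenchymal stem cells, treated with drug combinations. Concentrations descend in half-log steps from near clinical Cmax, or from 10 microM where Cmax is unknown; viability read-out.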

[1] = second compound 0.0316 µM, first compound 0.000999 µM
[2] = second compound 0.0316 µM, first compound 0.00316 µM
[3] = second compound 0.0316 µM, first compound 0.00999 µM
[4] = second compound 0.0316 µM, first compound 0.0316 µM
[5] = second compound 0.0316 µM, first compound 0.0999 µM
[6] = second compound 0.0316 µM, first compound 0.316 µM
[7] = second compound 0.1 µM, first compound 0.000999 µM
[8] = second compound 0.1 µM, first compound 0.00316 µM
[9] = second compound 0.1 µM, first compound 0.00999 µM
[10] = second compound 0.1 µM, first compound 0.0316 µM
[11] = second compound 0.1 µM, first compound 0.0999 µM
[12] = second compound 0.1 µM, first compound 0.316 µM
[13] = second compound 0.316 µM, first compound 0.000999 µM
[14] = second compound 0.316 µM, first compound 0.00316 µM
[15] = second compound 0.316 µM, first compound 0.00999 µM
[16] = second compound 0.316 µM, first compound 0.0316 µM
[17] = second compound 0.316 µM, first compound 0.0999 µM
[18] = second compound 0.316 µM, first compound 0.316 µM
[19] = second compound 1 µM, first compound 0.000999 µM
[20] = second compound 1 µM, first compound 0.00316 µM
[21] = second compound 1 µM, first compound 0.00999 µM
[22] = second compound 1 µM, first compound 0.0316 µM
[23] = second compound 1 µM, first compound 0.0999 µM
[24] = second compound 1 µM, first compound 0.316 µM
[25] = second compound 3.16 µM, first compound 0.000999 µM
[26] = second compound 3.16 µM, first compound 0.00316 µM
[27] = second compound 3.16 µM, first compound 0.00999 µM
[28] = second compound 3.16 µM, first compound 0.0316 µM
[29] = second compound 3.16 µM, first compound 0.0999 µM
[30] = second compound 3.16 µM, first compound 0.316 µM
[31] = second compound 10 µM, first compound 0.000999 µM
[32] = second compound 10 µM, first compound 0.00316 µM
[33] = second compound 10 µM, first compound 0.00999 µM
[34] = second compound 10 µM, first compound 0.0316 µM
[35] = second compound 10 µM, first compound 0.0999 µM
[36] = second compound 10 µM, first compound 0.316 µM
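Further: spheroids exposed to compounds for one week before readout.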
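Wherever viability, T/C is given: percent viability relative to vehicle DMSO wells taken as 100%.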

Work on `CCc1c2c(nc3ccc(O)cc13)-c1cc3c(c(=O)n1C2)COC(=O)[C@]3(O)CC` + CN(C)c1ccc(Nc2c3ccc(NC(=O)CCN4CCCC4)cc3nc3cc(NC(=O)CCN4CCCC4)ccc23)cc1 yielded a pIC50 (second compound 0.0316 µM) of 7.79, a pIC50 (second compound 0.1 µM) of 7.81 and a pIC50 (second compound 0.316 µM) of 7.82. For the same compound, the pIC50 (second compound 1 µM) was 7.88, the pIC50 (second compound 3.16 µM) was 7.84 and the pIC50 (second compound 10 µM) was 7.62. The viability, T/C [1] was 95.6%, the viability, T/C [2] was 78.4% and the viability, T/C [3] was 55.4%. The viability, T/C [4] was 40.4%, the viability, T/C [5] was 21.6% and the viability, T/C [6] was 5.95%. The viability, T/C [7] was 94.2%, the viability, T/C [8] was 81.8% and the viability, T/C [9] was 59.9%. The viability, T/C [10] was 33.8%, the viability, T/C [11] was 18.5% and the viability, T/C [12] was 7.59%. For the same compound, the viability, T/C [13] was 98%, the viability, T/C [14] was 82.3% and the viability, T/C [15] was 57.6%. The viability, T/C [16] was 34%, the viability, T/C [17] was 21.5% and the viability, T/C [18] was 5.15%. The viability, T/C [19] was 93.5%, the viability, T/C [20] was 77% and the viability, T/C [21] was 55.9%. For the same compound, the viability, T/C [22] was 31.4%, the viability, T/C [23] was 20.2% and the viability, T/C [24] was 5.78%. For the same compound, the viability, T/C [25] was 89.9%, the viability, T/C [26] was 77.6% and the viability, T/C [27] was 58.3%. The viability, T/C [28] was 31.9%, the viability, T/C [29] was 21.7% and the viability, T/C [30] was 7.69%. For the same compound, the viability, T/C [31] was 70.4%, the viability, T/C [32] was 67.4% and the viability, T/C [33] was 59%. It also gave a viability, T/C [34] of 48.2%, a viability, T/C [35] of 27.8% and a viability, T/C [36] of 14.2%.

With `COc1cc(C2c3cc4c(cc3C(OC3OC5COC(C)OC5C(O)C3O)C3COC(=O)C23)OCO4)cc(OC)c1O` (stereo unspecified) + Cc1[nH]c2ccc(F)cc2c1-c1nc2c3cccnc3c3ncccc3c2[nH]1 the pIC50 (second compound 0.0316 µM) was 6.03, the pIC50 (second compound 0.1 µM) was 6.02 and the pIC50 (second compound 0.316 µM) was 5.99. The pIC50 (second compound 1 µM) was 5.85, the pIC50 (second compound 3.16 µM) was 6.02 and the pIC50 (second compound 10 µM) was 6.01. The viability, T/C [4] was 84.8%, the viability, T/C (second compound 0.0316 µM, first compound 0.1 µM) was 62.7% and the viability, T/C [6] was 58%. It also gave a viability, T/C (second compound 0.0316 µM, first compound 1 µM) of 53.8%, a viability, T/C (second compound 0.0316 µM, first compound 3.16 µM) of 42.1% and a viability, T/C (second compound 0.0316 µM, first compound 10 µM) of 24.6%. The viability, T/C [10] was 86.5%, the viability, T/C (second compound 0.1 µM, first compound 0.1 µM) was 73.6% and the viability, T/C [12] was 50.9%. For the same compound, the viability, T/C (second compound 0.1 µM, first compound 1 µM) was 59.4%, the viability, T/C (second compound 0.1 µM, first compound 3.16 µM) was 38.8% and the viability, T/C (second compound 0.1 µM, first compound 10 µM) was 24.9%. For the same compound, the viability, T/C [16] was 88.9%, the viability, T/C (second compound 0.316 µM, first compound 0.1 µM) was 69.8% and the viability, T/C [18] was 55.9%. It also gave a viability, T/C (second compound 0.316 µM, first compound 1 µM) of 59%, a viability, T/C (second compound 0.316 µM, first compound 3.16 µM) of 38.9% and a viability, T/C (second compound 0.316 µM, first compound 10 µM) of 25.4%. For the same compound, the viability, T/C [22] was 81.4%, the viability, T/C (second compound 1 µM, first compound 0.1 µM) was 71.8% and the viability, T/C [24] was 50.7%. It also gave a viability, T/C (second compound 1 µM, first compound 1 µM) of 63.1%, a viability, T/C (second compound 1 µM, first compound 3.16 µM) of 44.6% and a viability, T/C (second compound 1 µM, first compound 10 µM) of 23.5%. For the same compound, the viability, T/C [28] was 94.9%, the viability, T/C (second compound 3.16 µM, first compound 0.1 µM) was 65.3% and the viability, T/C [30] was 47.6%. It also gave a viability, T/C (second compound 3.16 µM, first compound 1 µM) of 56.2%, a viability, T/C (second compound 3.16 µM, first compound 3.16 µM) of 45.4% and a viability, T/C (second compound 3.16 µM, first compound 10 µM) of 24%. The viability, T/C [34] was 90.7%, the viability, T/C (second compound 10 µM, first compound 0.1 µM) was 69.5% and the viability, T/C [36] was 49.8%. For the same compound, the viability, T/C (second compound 10 µM, first compound 1 µM) was 56.5%, the viability, T/C (second compound 10 µM, first compound 3.16 µM) was 50.7% and the viability, T/C (second compound 10 µM, first compound 10 µM) was 27.7%.

With `CC[C@@]1(O)C(=O)OCc2c1cc1n(c2=O)Cc2cc3c(CN(C)C)c(O)ccc3nc2-1` + Cc1cnc(CNC(=O)c2c(=O)c3ccc(N4CCCN(C)CC4)nc3n3c2sc2ccccc23)cn1 the pIC50 (second compound 0.0316 µM) was 7.06, the pIC50 (second compound 0.1 µM) was 7.17 and the pIC50 (second compound 0.316 µM) was > 9.00. For the same compound, the pIC50 (second compound 1 µM) was > 9.00, the pIC50 (second compound 3.16 µM) was > 9.00 and the pIC50 (second compound 10 µM) was > 9.00. It also gave a viability, T/C [1] of 95.9%, a viability, T/C [2] of 96% and a viability, T/C [3] of 81.6%. It also gave a viability, T/C [4] of 59.7%, a viability, T/C [5] of 53.1% and a viability, T/C [6] of 32.2%. For the same compound, the viability, T/C [7] was 58.2%, the viability, T/C [8] was 65.6% and the viability, T/C [9] was 61.4%. The viability, T/C [10] was 60.3%, the viability, T/C [11] was 44.8% and the viability, T/C [12] was 19.6%. The viability, T/C [13] was 23.6%, the viability, T/C [14] was 20.7% and the viability, T/C [15] was 18.6%. It also gave a viability, T/C [16] of 22%, a viability, T/C [17] of 14% and a viability, T/C [18] of 5.04%. It also gave a viability, T/C [19] of 4.85%, a viability, T/C [20] of 5.23% and a viability, T/C [21] of 4.03%. For the same compound, the viability, T/C [22] was 3.48%, the viability, T/C [23] was 2.83% and the viability, T/C [24] was 2.11%. It also gave a viability, T/C [25] of 2.58%, a viability, T/C [26] of 2.92% and a viability, T/C [27] of 2.38%. For the same compound, the viability, T/C [28] was 2.13%, the viability, T/C [29] was 1.91% and the viability, T/C [30] was 1.66%. The viability, T/C [31] was 1.38%, the viability, T/C [32] was 1.91% and the viability, T/C [33] was 1.93%. For the same compound, the viability, T/C [34] was 2.78%, the viability, T/C [35] was 0.44% and the viability, T/C [36] was 0.24%.
